Results as given in patent publication EP2442784B1, “COMPOSITIONS AND METHODS FOR INHIBITING PAR2 ACTIVATION OF KERATINOCYTES” (THE PROCTER & GAMBLE COMPANY, priority 2010, dated 2012).

Molecular target: T1, PAR-2 receptor (Homo sapiens, UniProt P55085)
T1 construct: host or cells: engineered cell line from DiscoveRx
T1 sequence (P55085 26-397): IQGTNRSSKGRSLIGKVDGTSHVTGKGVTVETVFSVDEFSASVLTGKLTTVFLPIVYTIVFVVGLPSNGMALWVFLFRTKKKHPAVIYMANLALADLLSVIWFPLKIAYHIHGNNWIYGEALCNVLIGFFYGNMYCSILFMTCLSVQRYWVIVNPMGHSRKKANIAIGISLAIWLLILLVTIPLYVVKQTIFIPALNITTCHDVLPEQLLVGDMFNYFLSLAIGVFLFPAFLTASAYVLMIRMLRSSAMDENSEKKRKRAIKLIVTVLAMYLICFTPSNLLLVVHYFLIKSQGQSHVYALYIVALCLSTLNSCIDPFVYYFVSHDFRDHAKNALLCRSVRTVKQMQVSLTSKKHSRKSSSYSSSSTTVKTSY
Assay: PAR-2 Inhibition Assay (beta arrestin recruitment / beta galactosidase complementation, luminescence; PAR2 activation by trypsin)
Type: cell-based
Conditions: for PAR2 inhibitory effect (summary in words): over the dilution factors tested; for percent inhibition of PAR2 activation: activation by trypsin, triplicate
From the text: PAR-2 Inhibition Assay - The assay principle relies on the recruitment of beta arrestin to the activated PAR-2 receptor resulting in the formation of an active beta galactosidase enzyme which can cleave a substrate causing a luminescent signal that can be quantitated. PAR-2 can be activated by either adding trypsin and also by adding SLIGRL peptide.
Cells expressing PAR-2 receptor coupled to the alpha fragment of beta galactosidase and expressing beta arrestin coupled to the beta fragment of beta galactosidase are obtained from DiscoveRx Corp., Freemont, CA. Cells are propagated in a culture medium of Dulbeccos Modified Eagle Medium supplemented with 10% heat-inactivated fetal bovine serum, 500 unit/mL penicillin, 500 ug/mL streptomycin, 800 ug/mL gentimicin, and 300 ug/mL hygromycin in T75 or T150 culture flasks (all media components available from Invitrogen Corp., Carlsbad, CA) in a CO2 incubator at 37°C. When cells reach approximately 80% confluency, the cells are detached from the flask using Cell Dissociation Buffer (available from Invitrogen Corp., Carlsbad, CA as item number 13151-014). The cells are counted using a hemocytometer and plated into 384 well plates at 10000 cells/well in 20 uL/well of Opti-MEM® media (available from Invitrogen Corp., Carlsbad, CA). The cells are cultured for 24 -48 hours.
To assay potential inhibitors of PAR2 activation by trypsin, each well is treated with 1 uL of the test material in water. Each test material is run in triplicate. The cells are incubated for 30 minutes in the CO2 incubator, after which 1 uL of trypsin is added (approximate 0.1 ug/uL). The cells are incubated for an hour in the CO2 incubator after which the cell lysis substrate solution (11 uL/well) is added. The lysis substrate solution is available in the PathHunter™ Detection Kit (catalogue #93-0001) from DiscoveRx Corp., Freemont, CA, in which the components are mixed in the following ratio: • Assay Buffer: Substrate 1: Substrate 2 = 19:5:1 The plates are briefly centrifuged (approximately 5 minutes) at 800 X g to remove bubbles and are then incubated at room temperature for 1 hr. Luminescence is read for each well on an Envision™ 2101 Multilabel Reader (available form PerkinElmer, Inc., Boston, MA). The range is determined by wells with solvent control + trypsin (high control) and by wells with solvent control and no trypsin (low control). The percent PAR2 inhibition of each treatment is calculated by the following formula of the luminescence signals: (1-([treatment luminescence-low control luminescence])/([high control luminescence-low control luminescence])) × 100 [formula] Statistics are done in Excel by Microsoft, Redmond, WA, using the T-test function, single tail with uneven distribution functions.
Using the assay outlined above, various concentrations and combinations of Laminaria Saccharina extract (e.g., Phlorogine), N-acyl Amino Acid (e.g., Sepiwhite), and vitamin B3 (e.g., niacinamide) were tested. Stock compositions of 1% Phlorogine (i.e., composition comprises approximately 0.025% - 0.01% Laminaria Saccharina extract), 1% Sepiwhite, 5% niacinamide, and combinations thereof are prepared and diluted prior to use. Test runs are performed at dilution factors of 0.045, 0.023, and 0.006. For clarity purposes, the 1% Sepiwhite composition diluted at a factor of 0.045 yields a test compositing comprising 0.045% Sepiwhite.

[1] = stock composition diluted at dilution factor 0.006
[2] = stock composition diluted at dilution factor 0.023
[3] = stock composition diluted at dilution factor 0.045 (e.g. 0.045% Sepiwhite), 100% = control without trypsin

Row | Structure (SMILES) | PAR2 inhibitory effect (summary in words) | percent inhibition of PAR2 activation [1] [%] | percent inhibition of PAR2 activation [2] [%] | percent inhibition of PAR2 activation [3] [%]
1 | NC(=O)c1cccnc1 [5% Niacinamide, niacinamide] | inhibitory effect which is pronounced at higher dilutions | 5 | 14 | 20
2 | C=CCCCCCCCCC(=O)N[C@@H](Cc1ccccc1)C(=O)O [1% Sepiwhite, N-undecylenoyl-L-phenylalanine] | inhibitory effect which is pronounced at higher dilutions | 14 | 35 | 53
